Values of other authors in PMC8463260 (Acta Pharmaceutica Sinica. B, 2020).

What was measured:
[1] = in vitro bioactivity compared to native insulin; ref [26],[28]-[31]
[2] = multimerization and serum albumin association; ref [5],[6]

Substance | in vitro potency, fold lower vs native insulin [1] | in vivo half-life [2] [h]
insulin degludec | 6–8 fold | –
insulin detemir: long-acting insulin derivative with hydrophobic modification on B29 lysine | – | 20 to 48
